Experimental data taken from patent US8802663B2, “Pyrazole oxadiazole derivatives as S1P1 agonists” (Merck Serono SA, priority 2009, dated 2014).
Where a name gives a salt, the structure may show the parent alone.

Molecular target: S1P1 (Homo sapiens (Human), UniProt P21453)
Assay: 35S-GTPγS binding, membranes from CHO cells expressing S1P1
Assay type: biochemical
Conditions: CHO cell membranes
Procedure: Cells were suspended in 50 mM TRIS, pH 7.4, 2 mM EDTA, 250 mM Sucrose (buffer A) and 1× Complete protease inhibitor cocktail (Roche), and disrupted at 4° C. by N2 decompression using a cell disruption bomb (Parr Instrument). Following centrifugation at 1000 RPM for 10 min at 4° C., the supernatant was suspended in buffer A and centrifuged again at 19000 RPM for 60 min at 4° C. The pellet was then suspended in 10 mM HEPES, pH 7.4, 1 mM EDTA, 250 mM Sucrose (Buffer B), and 1× Complete EDTA-free protease inhibitor cocktail and homogenized using a potter. Membranes were flash frozen in liquid N2 and stored at −80° C. [33P]sphingosine 1-phosphate (3000 Ci/mmol; American Radiolabeled Chemicals, Inc.) was added to test compounds in DMSO. […] Specific binding was calculated by subtracting remaining radioactivity in the presence of 1000-fold excess of unlabeled SIP. Binding data were analyzed using the GraphPad Prism program.
After 60 min incubation at 30° C. on a shaker, plates were centrifuged for 10 min at 2000 RPM. […] Triplicate samples were averaged and expressed as % response relative to S1P activation in absence of compound (n=2).

Chain of S1P1 (P21453 whole entry, species assumed): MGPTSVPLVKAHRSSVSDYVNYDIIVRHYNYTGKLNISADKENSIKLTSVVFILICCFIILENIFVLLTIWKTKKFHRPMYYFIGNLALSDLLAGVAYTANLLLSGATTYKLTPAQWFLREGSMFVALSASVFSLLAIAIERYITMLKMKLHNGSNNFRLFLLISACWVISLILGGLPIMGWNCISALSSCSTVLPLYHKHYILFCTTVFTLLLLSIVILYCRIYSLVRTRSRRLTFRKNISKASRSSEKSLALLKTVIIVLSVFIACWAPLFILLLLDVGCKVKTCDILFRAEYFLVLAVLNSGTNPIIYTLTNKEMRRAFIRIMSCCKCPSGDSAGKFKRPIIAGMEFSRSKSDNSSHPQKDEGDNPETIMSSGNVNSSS

**Q.** For `Cc1c(-c2nc(-c3cc(F)ccc3F)no2)cnn1C1CCCCC1` [Example 86, 5-(1-cyclohexyl-5-methyl-1H-pyrazol-4-yl)-3-(2,5-difluorophenyl)-1,2,4-oxadiazole], which EC50 is on record?
**A.** 306 nM

**Q.** Which EC50 does the source give for `FC(F)(F)c1cccc(-c2noc(-c3cnn(C4CCCCC4)c3C3CCOCC3)n2)c1` [Example 87, 5-(1-cyclohexyl-5-(tetrahydro-2H-pyran-4-yl)-1H-pyrazol-4-yl)-3-(3-(trifluoromethyl)phenyl)-1,2,4-oxadiazole] here?
**A.** 361 nM

**Q.** Which EC50 does the source give for `CNCc1ccc(-c2noc(-c3cnn(C4CCCCC4)c3C3CCOCC3)n2)cc1` [Example 88, 1-(4-(5-(1-cyclohexyl-5-(tetrahydro-2H-pyran-4-yl)-1H-pyrazol-4-yl)-1,2,4-oxadiazol-3-yl)phenyl)-N-methylmethanamine] here?
**A.** 47 nM

**Q.** With `CC(C)(C)Cn1ncc(-c2nc(-c3cccc(C(F)(F)F)c3)no2)c1-c1ccncc1` [Example 90, 5-(1-neopentyl-5-(pyridin-4-yl)-1H-pyrazol-4-yl)-3-(3-(trifluoromethyl)phenyl)-1,2,4-oxadiazole] as the molecule, how does the EC50 read?
**A.** 35 nM

**Q.** `Brc1ccc(-c2noc(-c3cnn(C4CCCCC4)c3-c3ccncc3)n2)cc1` [Example 92, 3-(4-bromophenyl)-5-(1-cyclohexyl-5-(pyridin-4-yl)-1H-pyrazol-4-yl)-1,2,4-oxadiazole] was tested. Which EC50 did it give?
**A.** 158 nM

**Q.** Which EC50 does the source give for `CC(C)(C)Cn1ncc(-c2nc(-c3cc(F)ccc3F)no2)c1-c1ccncc1` [Example 93, 3-(2,5-difluorophenyl)-5-(1-neopentyl-5-(pyridin-4-yl)-1H-pyrazol-4-yl)-1,2,4-oxadiazole] here?
**A.** 301 nM

**Q.** Which EC50 does the source give for `OCc1ccc(-c2noc(-c3cnn(CC4CC4)c3-c3ccncc3)n2)cc1` [Example 94, (4-(5-(1-(cyclopropylmethyl)-5-(pyridin-4-yl)-1H-pyrazol-4-yl)-1,2,4-oxadiazol-3-yl)phenyl)methanol] here?
**A.** 387 nM

**Q.** For `c1cc(-c2c(-c3nc(-c4ccc5nccn5c4)no3)cnn2C2CCCCC2)ccn1` [Example 95, 5-(1-cyclohexyl-5-(pyridin-4-yl)-1H-pyrazol-4-yl)-3-(imidazo[1,2-a]pyridin-6-yl)-1,2,4-oxadiazole], which EC50 is on record?
**A.** 96 nM

**Q.** For `Fc1ccc(F)c(-c2noc(-c3cnn(CCc4ccccc4)c3-c3ccncc3)n2)c1` [Example 99, 3-(2,5-difluorophenyl)-5-(1-phenethyl-5-(pyridin-4-yl)-1H-pyrazol-4-yl)-1,2,4-oxadiazole], which EC50 is on record?
**A.** 496 nM

**Q.** `CC(C)(C)Cn1ncc(-c2nc(-c3ccc(CO)cc3)no2)c1-c1ccncc1` [Example 100, (4-(5-(1-neopentyl-5-(pyridin-4-yl)-1H-pyrazol-4-yl)-1,2,4-oxadiazol-3-yl)phenyl)methanol] was tested. Which EC50 did it give?
**A.** 377 nM

**Q.** `COCCc1c(-c2nc(-c3cc(F)ccc3F)no2)cnn1C1CCCCC1` [Example 103, 5-(1-cyclohexyl-5-(2-methoxyethyl)-1H-pyrazol-4-yl)-3-(2,5-difluorophenyl)-1,2,4-oxadiazole] was tested. Which EC50 did it give?
**A.** 35 nM

**Q.** With `CNCc1ccc(-c2noc(-c3cnn(CC(C)(C)C)c3-c3ccncc3)n2)cc1` [Example 104, N-methyl-1-(4-(5-(1-neopentyl-5-(pyridin-4-yl)-1H-pyrazol-4-yl)-1,2,4-oxadiazol-3-yl)phenyl)methanamine] as the molecule, how does the EC50 read?
**A.** 314 nM

**Q.** With `CNCc1ccc(-c2noc(-c3cnn(CCc4ccccc4)c3-c3ccncc3)n2)cc1` [Example 106, N-methyl-1-(4-(5-(1-phenethyl-5-(pyridin-4-yl)-1H-pyrazol-4-yl)-1,2,4-oxadiazol-3-yl)phenyl)methanamine] as the molecule, how does the EC50 read?
**A.** 458 nM

**Q.** `COCc1c(-c2nc(-c3ccc(Cn4cncn4)cc3)no2)cnn1C1CCCCC1` [Example 107, 3-(4-((1H-1,2,4-triazol-1-yl)methyl)phenyl)-5-(1-cyclohexyl-5-(methoxymethyl)-1H-pyrazol-4-yl)-1,2,4-oxadiazole] was tested. Which EC50 did it give?
**A.** 45 nM

**Q.** Which EC50 does the source give for `COCCc1c(-c2nc(-c3cccc(C(F)(F)F)c3)no2)cnn1C1CCCCC1` [Example 108, 5-(1-cyclohexyl-5-(2-methoxyethyl)-1H-pyrazol-4-yl)-3-(3-(trifluoromethyl)phenyl)-1,2,4-oxadiazole] here?
**A.** 102 nM

**Q.** How did the EC50 turn out when `COCc1c(-c2nc(-c3ccc(CCO)cc3)no2)cnn1C1CCCCC1` [Example 109, 2-(4-(5-(1-cyclohexyl-5-(methoxymethyl)-1H-pyrazol-4-yl)-1,2,4-oxadiazol-3-yl)phenyl)ethanol] was run?
**A.** 312 nM

**Q.** Which EC50 does the source give for `O=C(O)C1CN(Cc2ccc(-c3noc(-c4cnn(CCc5ccccc5)c4-c4ccncc4)n3)cc2)C1` [Example 110, 1-(4-(5-(1-phenethyl-5-(pyridin-4-yl)-1H-pyrazol-4-yl)-1,2,4-oxadiazol-3-yl)benzyl)azetidine-3-carboxylic acid, formate] here?
**A.** 40 nM

**Q.** With `COCCc1c(-c2nc(-c3ccc(Cn4cncn4)cc3)no2)cnn1C1CCCCC1` [Example 111, 3-(4-((1H-1,2,4-triazol-1-yl)methyl)phenyl)-5-(1-cyclohexyl-5-(2-methoxyethyl)-1H-pyrazol-4-yl)-1,2,4-oxadiazole] as the molecule, how does the EC50 read?
**A.** 29 nM

**Q.** Which EC50 does the source give for `CCOc1c(-c2nc(-c3cc(F)ccc3F)no2)cnn1-c1ccccc1C` [Example 112, 3-(2,5-difluorophenyl)-5-(5-ethoxy-1-o-tolyl-1H-pyrazol-4-yl)-1,2,4-oxadiazole] here?
**A.** 94 nM

**Q.** `FC(F)(F)c1cccc(-c2noc(-c3cnn(CC4CC4)c3-c3ccncc3)n2)c1` [Example 113, 5-(1-(cyclopropylmethyl)-5-(pyridin-4-yl)-1H-pyrazol-4-yl)-3-(3-(trifluoromethyl)phenyl)-1,2,4-oxadiazole] was tested. Which EC50 did it give?
**A.** 24 nM

**Q.** Which EC50 does the source give for `COCc1c(-c2nc(-c3ccc(Cn4cccn4)cc3)no2)cnn1C1CCCCC1` [Example 114, 3-(4-((1H-pyrazol-1-yl)methyl)phenyl)-5-(1-cyclohexyl-5-(methoxymethyl)-1H-pyrazol-4-yl)-1,2,4-oxadiazole] here?
**A.** 94 nM

**Q.** How did the EC50 turn out when `COCCc1c(-c2nc(-c3ccc(CO)cc3)no2)cnn1C1CCCCC1` [Example 115, (4-(5-(1-cyclohexyl-5-(2-methoxyethyl)-1H-pyrazol-4-yl)-1,2,4-oxadiazol-3-yl)phenyl)methanol] was run?
**A.** 134 nM

**Q.** `COCc1c(-c2nc(-c3ccc4c(c3)CCNC4)no2)cnn1C1CCCCC1` [Example 116, 5-(1-cyclohexyl-5-(methoxymethyl)-1H-pyrazol-4-yl)-3-(1,2,3,4-tetrahydroisoquinolin-6-yl)-1,2,4-oxadiazole] was tested. Which EC50 did it give?
**A.** 86 nM

**Q.** `COCc1c(-c2nc(-c3ccc4c(c3)CN(CCC(=O)O)CC4)no2)cnn1C1CCCCC1` [Example 118, 3-(7-(5-(1-cyclohexyl-5-(methoxymethyl)-1H-pyrazol-4-yl)-1,2,4-oxadiazol-3-yl)-3,4-dihydroisoquinolin-2(1H)-yl)propanoic acid] was tested. Which EC50 did it give?
**A.** 398 nM

**Q.** `COCc1c(-c2nc(-c3ccc(Cn4ccnc4)cc3)no2)cnn1C1CCCCC1` [Example 119, 3-(4-((1H-imidazol-1-yl)methyl)phenyl)-5-(1-cyclohexyl-5-(methoxymethyl)-1H-pyrazol-4-yl)-1,2,4-oxadiazole] was tested. Which EC50 did it give?
**A.** 66 nM

**Q.** `COCc1c(-c2nc(-c3ccc(CNC(C)C)cc3)no2)cnn1C1CCCCC1` [Example 121, N-(4-(5-(1-cyclohexyl-5-(methoxymethyl)-1H-pyrazol-4-yl)-1,2,4-oxadiazol-3-yl)benzyl)propan-2-amine] was tested. Which EC50 did it give?
**A.** 40 nM

**Q.** `COCc1c(-c2nc(-c3ccc(CNCC(O)CO)cc3)no2)cnn1C1CCCCC1` (stereo not drawn) [Example 122, 3-(4-(5-(1-cyclohexyl-5-(methoxymethyl)-1H-pyrazol-4-yl)-1,2,4-oxadiazol-3-yl)benzylamino)propane-1,2-diol] was tested. Which EC50 did it give?
**A.** 157 nM
